# What was measured:
# [1] = system: melanocytes (HEMn-LP, HEMn-DP); assay: Intracellular melanin amount of melanocytes in melanocyte single culture system; format: cell-based, human; conditions: melanocytes (lightly and darkly); proguanil 3, 10 or 30 μM; 7 days; versus DMSO; FIGS. 15A, 15B
# Experimental: Normal human neonatal foreskin-derived epidermal melanocytes (Human Epidermal Melanocytes, neonatal, lightly pigmented donor (HEMn-LP) and Human Epidermal Melanocytes, neonatal, darkly pigmented donor (HEMn-DP); melanocytes (lightly) and melanocytes (darkly)), a growth medium for epidermal melanocytes (Medium254) and a growth additive (HMGS) for the medium were purchased from Thermo Fisher Scientific. Melanocytes were cultured at 37° C. in 5 vol % CO2 atmospheric conditions. Melanocytes (lightly and darkly) were seeded in 6-well plates at a cell density of 2×10^5 cells/well (2 mL/well). […] The following day, proguanil was added at a final concentration of 3, 10 or 30 μM and culture was performed at 37° C. in 5 vol % CO2 atmospheric conditions for 7 days. As a control, the same amount of DMSO was added. Note that medium replacement was carried out every 2 to 3 days. After completion of culture, the cell culture plates were washed with PBS and the cells were collected by use of a cell scraper in 1.5 mL micro tubes. To individual tubes, 2M NaOH (150 μL) was added and treatment was performed at 100° C. for 60 minutes to lyse the cells. Each of the lysates was centrifuged at a 21,640 g for 10 minutes at room temperature and the supernatant was recovered. The absorbance of the supernatant recovered was measured at a wavelength of 405 nm and the amount of melanin per well was calculated.
# [2] = system: Pmel17; assay: Melanin (melanosome) decomposition in epidermal keratinocytes that incorporated MNT-1 melanosome fraction; format: cell-based, human; conditions: keratinocytes with incorporated melanosome, proguanil 10 or 30 μM, 2 days, FIG. 17
# Experimental: Normal human neonatal foreskin-derived epidermal keratinocytes (Human Epidermal Keratinocytes, neonatal (HEKn) lightly; keratinocytes) were purchased from Thermo Fisher Scientific. Melanoma cell strain MNT-1 cells were given by Dr. […] (University La Sapienza, Rome, Italy). The keratinocytes were cultured in a grow medium (Epilife) epidermal keratinocytes (Thermo Fisher Scientific) supplemented with a growth additive (Humedia-KG) (manufactured by Kurabo Industries Ltd.) at 37° C. in 5 vol % CO2 atmospheric conditions. As a grow medium MNT-1 cells, RPMI1640 medium (Thermo Fisher Scientific) containing AIM-V medium and Fetal Bovine Serum (FES) each in an amount of 10% (v/v) was used and culture was performed at 37° C. in 5 vol % CO2 atmospheric conditions. A melanosome fraction was isolated and prepared from MNT-1 cells by a predetermined method (Murase et al. (2013), J Invest Dermatol, 133: 2416-2424). […] The resultant supernatant was subjected to quantitative determination of protein by BCA (bicinchoninic acid) method using Pierce BCA Protein Assay Kit (Thermo Fisher Scientific) and Bovine Serum Albumin (BSA) as a standard substance. […] Expression of β-actin as the internal standard was evaluated by using a monoclonal antibody specific for β-actin (Sigma-Aldrich, 1:5000). […]
smiles,measurement,setting,value
"[H]/N=C(\N/C(=N/[H])Nc1ccc(Cl)cc1)NC(C)C [proguanil, 1-(p-chlorophenyl)-5-isopropyl biguanide]",intracellular amount of melanin,[1],does not increase intracellular amount of melanin
same,color density of the cell sediment,[2],confirmed to be increased in a concentration-dependent manner
same,intensity of the band of Pmel17,[2]; versus DMSO,is increased in a concentration-dependent manner

# From patent US10966911B2, “Melanin decomposition inhibitor” (KAO CORPORATION, priority 2016, dated 2021)
